According to paper PMC6254723, “Synthesis and Pharmacological Screening of Several Aroyl and Heteroaroyl Selenylacetic Acid Derivatives as Cytotoxic and Antiproliferative Agents” (Molecules, 2009):
Like-named read-outs stand apart in the source and are kept apart here.

What was measured:
HTB-54 = assay: MTT cytotoxicity assay (NCI) in HTB-54; format: cell-based, human; details: 72 h; for TGI HTB-54: dose that completely inhibits cell growth; for LD50 HTB-54: dose that kills 50% of cells; for GI50: Homo sapiens, HTB-54, dose that inhibits 50% of cell growth, read-out: GI50 HTB-54
Protocol: (§1) In order to investigate the effect of the active compounds in more detail, we examined the activity on proliferation in other cancer cell lines. […] Tests were carried out in the Department of Health Science, Public University of Navarra against a panel of four human tumour cell lines: lung (HTB-54), colon (HT-29), leukaemia (CCRF-CEM) and breast adenocarcinoma (MCF-7). Cytotoxicity assays were performed based on the reactivity of MTT [3-(4,5-dimethylthiazol-2-yl)-2,5-diphenyl-tetrazolium bromide], as described by NCI [39]. […] Doxorubicin was used as a control. As guidance with regard to selectivity, all of the compounds were further examined for toxicity in a mammary gland cell culture derived from non-malignant cells (184B5). Drug concentrations ranged from 0.01 to 100 μM.
(§2) The cytotoxic effects of each substance were tested at five different doses between 0.01 and 100 μM. Each substance was initially dissolved in DMSO at a concentration of 0.1 M, and serial dilutions were prepared using culture medium. The plates with cells from the different lines, to which medium containing the substance under test were added, were incubated for 72 h at 37 °C in a humidified atmosphere containing 5% CO2. European Collection of Cell Cultures (ECACC) or American Type Culture Collection (ATCC) provided human tumour cell lines. Four cell lines were used: one human lymphocytic leukemia (CCRF-CEM) and three human solid tumours, one colon carcinoma (HT-29), one lung carcinoma (HTB-54) and one breast adenocarcinoma (MCF-7). CCRF-CEM, HT-29 and HTB-54 cells were grown in RPMI 1640 medium (Life Technologies, Carlsbad, CA, USA) supplemented with 10% foetal calf serum, 2 mM L-glutamine, 100 units/mL penicillin, 100 μg/mL streptomycin and 10 mM HEPES buffer (pH = 7.4). MCF-7 cells were grown in EMEM medium (Clonetics) supplemented with 10% foetal calf serum, 2 mM L-glutamine, 100 units/mL penicillin and 100 μg/mL streptomycin. 184B5 cells were grown Hams F-12/DMEM (50:50) supplemented as described by Li et al.. Cytotoxicity was then determined by the MTT method. […] Data were obtained from at least three independent experiments performed in quadruplicate.

HT-29 = assay: MTT cytotoxicity assay (NCI) in HT-29; format: cell-based, human; details: 72 h; for TGI HT-29: dose that completely inhibits cell growth; for LD50 HT-29: dose that kills 50% of cells; for GI50: Homo sapiens, HT-29, dose that inhibits 50% of cell growth, read-out: GI50 HT-29
Protocol: as §1, §2

[1] = MTT toxicity assay in non-malignant mammary gland cells 184B5; format: cell-based; details: human
Protocol: as §1, §2

184B5 = assay: as above; format: cell-based; details: for LD50 184B5 / TGI 184B5: 72 h; for LD50 184B5: non-malignant cells, dose that kills 50% of cells; for TGI 184B5: human
Protocol: as §1, §2

CCRF-CEM = assay: MTT cytotoxicity assay (NCI) in CCRF-CEM; format: cell-based, human; details: 72 h; for TGI CCRF-CEM: dose that completely inhibits cell growth; for LD50 CCRF-CEM: dose that kills 50% of cells; for GI50: Homo sapiens, CCRF-CEM, dose that inhibits 50% of cell growth, read-out: GI50 CCRF-CEM
Protocol: as §1, §2

MCF-7 = assay: MTT cytotoxicity assay (NCI) in MCF-7; format: cell-based, human; details: 72 h; for TGI MCF-7: dose that completely inhibits cell growth; for LD50 MCF-7: dose that kills 50% of cells; for GI50: Homo sapiens, MCF7, dose that inhibits 50% of cell growth, read-out: GI50 MCF-7
Protocol: as §1, §2

PC-3 cell line = assay: MTT cytotoxicity assay in PC-3; details: for IC50: Homo sapiens
Protocol: The results are tabulated as IC50 values. All experiments were independently performed at least three times and the values were calculated after 72 hours exposure (drug concentrations of 2, 5, 7 and 10 μM).
PC-3 cells were seeded in 96-well plates (Millipore, Eschborn, Germany) at a density of 5 × 10^3 cells per well. The samples were incubated at 37 °C under 5% CO2 overnight prior to the addition of the compounds. Compounds were diluted in complete medium. After 3 days of incubation, 10 μL MTT solution (5 mg/mL in PBS) was added to the cells in each well and these were stored for an additional 4 h at 37 °C. […] The percentage of viable cells was calculated to obtain IC50-values.
PC-3 are human tumorigenic and metastatic prostate cancer cells and these were obtained from American Type Culture Collection (ATCC, Manassas, VA, USA) (passage 36).

[2] = PC-3, 72 h, read-out: IC50 PC-3 cell line
[3] = PC-3, read-out: IC50 (cytotoxic activity in PC-3 cell line)

**Q.** Which “TGI HTB-54” value (HTB-54) does the source give for N#Cc1ccc(C(=O)[Se]CC(=O)O)cc1 [Compound 2, (4-cyanobenzoylselenyl)acetic acid] here?
**A.** Its value is 9.91 µM.

**Q.** And the “LD50 HTB-54” value (HTB-54)?
**A.** The value was >100 µM.

**Q.** And the GI50 (HTB-54)?
**A.** Its GI50 is 1.9 µM.

**Q.** What about the “TGI HT-29” value (HT-29) of the same compound?
**A.** The value was 51.95 µM.

**Q.** And the “LD50 HT-29” value (HT-29)?
**A.** The value was >100 µM.

**Q.** What about the GI50 (HT-29) of the same compound?
**A.** The GI50 was 8.95 µM.

**Q.** What about the GI50 at 72 h [1] of the same compound?
**A.** The GI50 at 72 h was 2.29 µM.

**Q.** What about the “LD50 184B5” value (184B5) of the same compound?
**A.** Its value is 78.91 µM.

**Q.** And the “selectivity index (184B5/MCF-7 LD50 ratio)” value (184B5; LD50 in 184B5 divided by LD50 in MCF-7)?
**A.** Its value is 3.4.

**Q.** And the “TGI 184B5” value (184B5)?
**A.** Its value is 20.14 µM.

**Q.** What about the “TGI CCRF-CEM” value (CCRF-CEM) of the same compound?
**A.** Its value is >100 µM.

**Q.** What about the “LD50 CCRF-CEM” value (CCRF-CEM) of the same compound?
**A.** The value was >100 µM.

**Q.** What about the GI50 (CCRF-CEM) of the same compound?
**A.** The GI50 was > 100 µM.

**Q.** And the “TGI MCF-7” value (MCF-7)?
**A.** Its value is 6.54 µM.

**Q.** And the “LD50 MCF-7” value (MCF-7)?
**A.** The value was 23.12 µM.

**Q.** What about the GI50 (MCF-7) of the same compound?
**A.** Its GI50 is 2.64 µM.

**Q.** And the IC50 (PC-3 cell line; [2])?
**A.** Its IC50 is 10 µM.

**Q.** And the IC50 (PC-3 cell line; [3])?
**A.** Its IC50 is 10 µM.

**Q.** For O=C(O)C[Se]C(=O)c1ccc(C(F)(F)F)cc1 [Compound 3, (4-trifluoromethylbenzoylselenyl)acetic acid], which IC50 (PC-3 cell line; [2]) is on record?
**A.** The IC50 was > 10 µM.

**Q.** What about the IC50 (PC-3 cell line; [3]) of the same compound?
**A.** Its IC50 is > 10 µM.

**Q.** For O=C(O)C[Se]C(=O)c1ccc(Cl)cc1 [Compound 4, (4-chlorobenzoylselenyl)acetic acid], which IC50 (PC-3 cell line; [2]) is on record?
**A.** Its IC50 is > 10 µM.

**Q.** And the IC50 (PC-3 cell line; [3])?
**A.** The IC50 was > 10 µM.

**Q.** With Cc1ccc(C(=O)[Se]CC(=O)O)cc1 [Compound 5, (4-methylbenzoylselenyl)acetic acid] as the compound, how does the IC50 (PC-3 cell line; [2]) read?
**A.** Its IC50 is > 10 µM.

**Q.** What about the IC50 (PC-3 cell line; [3]) of the same compound?
**A.** The IC50 was > 10 µM.

**Q.** What does the source list for CC(C)(C)c1ccc(C(=O)[Se]CC(=O)O)cc1 [Compound 6, (4-tert-butylbenzoyl-selenyl)acetic acid]?
**A.** IC50 (PC-3 cell line; [2]): > 10 µM; IC50 (PC-3 cell line; [3]): > 10 µM

**Q.** For O=C(O)C[Se]C(=O)c1ccccc1Cl [Compound 8, (2-chlorobenzoylselenyl)acetic acid], which IC50 (PC-3 cell line; [2]) is on record?
**A.** Its IC50 is > 10 µM.

**Q.** And the IC50 (PC-3 cell line; [3])?
**A.** Its IC50 is > 10 µM.

**Q.** For O=C(O)C[Se]C(=O)c1ccccc1Br [Compound 9, (2-bromobenzoylselenyl)acetic acid], which IC50 (PC-3 cell line; [2]) is on record?
**A.** Its IC50 is > 10 µM.

**Q.** What about the IC50 (PC-3 cell line; [3]) of the same compound?
**A.** Its IC50 is > 10 µM.

**Q.** With O=C(O)C[Se]C(=O)c1ccccc1I [Compound 10, (2-iodobenzoylselenyl)acetic acid] as the compound, how does the IC50 (PC-3 cell line; [2]) read?
**A.** Its IC50 is > 10 µM.

**Q.** What about the IC50 (PC-3 cell line; [3]) of the same compound?
**A.** The IC50 was > 10 µM.

**Q.** What does the source list for O=C(O)C[Se]C(=O)Cc1ccccc1 [Compound 11, Phenylacetoylselenylacetic acid]?
**A.** TGI HTB-54 (HTB-54): >100 µM; LD50 HTB-54 (HTB-54): >100 µM; GI50 (HTB-54): 11.1 µM; TGI HT-29 (HT-29): 72.19 µM; LD50 HT-29 (HT-29): >100 µM; GI50 (HT-29): 16.2 µM; GI50 at 72 h [1]: 1.05 µM; LD50 184B5 (184B5): 72.34 µM; TGI 184B5 (184B5): 9.64 µM; TGI CCRF-CEM (CCRF-CEM): >100 µM; LD50 CCRF-CEM (CCRF-CEM): >100 µM; GI50 (CCRF-CEM): > 100 µM; TGI MCF-7 (MCF-7): 4.18 µM; TGI MCF-7 (MCF-7; listed as benzyl): 6.19 µM; LD50 MCF-7 (MCF-7): 53.49 µM; GI50 (MCF-7): 0.006 µM; IC50 (PC-3 cell line; [2]): 2.9 µM; IC50 (PC-3 cell line; [3]): 2.9 µM

**Q.** For O=C(O)C[Se]C(=O)c1cc(Cl)cc(Cl)c1 [Compound 13, (3,5-dichlorobenzoylselenyl)acetic acid], which IC50 (PC-3 cell line; [2]) is on record?
**A.** Its IC50 is > 10 µM.

**Q.** And the IC50 (PC-3 cell line; [3])?
**A.** The IC50 was > 10 µM.

**Q.** For COc1cc(OC)cc(C(=O)[Se]CC(=O)O)c1 [Compound 14, (3,5-dimethoxy-benzoylselenyl)acetic acid], which “TGI HTB-54” value (HTB-54) is on record?
**A.** Its value is >100 µM.

**Q.** What about the “LD50 HTB-54” value (HTB-54) of the same compound?
**A.** Its value is >100 µM.

**Q.** And the GI50 (HTB-54)?
**A.** Its GI50 is 16.8 µM.

**Q.** And the “TGI HT-29” value (HT-29)?
**A.** Its value is 47.42 µM.

**Q.** What about the “LD50 HT-29” value (HT-29) of the same compound?
**A.** The value was >100 µM.

**Q.** What about the GI50 (HT-29) of the same compound?
**A.** Its GI50 is 5.99 µM.

**Q.** What about the GI50 at 72 h [1] of the same compound?
**A.** Its GI50 at 72 h is 0.0009 µM.

**Q.** And the “LD50 184B5” value (184B5)?
**A.** Its value is 62.55 µM.

**Q.** And the “TGI 184B5” value (184B5)?
**A.** The value was 8.21 µM.

**Q.** And the “TGI CCRF-CEM” value (CCRF-CEM)?
**A.** The value was >100 µM.

**Q.** What about the “LD50 CCRF-CEM” value (CCRF-CEM) of the same compound?
**A.** The value was >100 µM.

**Q.** What about the GI50 (CCRF-CEM) of the same compound?
**A.** Its GI50 is > 100 µM.

**Q.** And the “TGI MCF-7” value (MCF-7)?
**A.** Its value is 6.19 µM.

**Q.** What about the “TGI MCF-7” value (MCF-7; listed as 3,5-dimethoxyphenyl) of the same compound?
**A.** The value was 4.18 µM.

**Q.** What about the “LD50 MCF-7” value (MCF-7) of the same compound?
**A.** The value was 52.65 µM.

**Q.** And the GI50 (MCF-7)?
**A.** The GI50 was 1.57 µM.

**Q.** What about the IC50 (PC-3 cell line; [2]) of the same compound?
**A.** Its IC50 is 4 µM.

**Q.** And the IC50 (PC-3 cell line; [3])?
**A.** The IC50 was 4 µM.

**Q.** With COc1cc(C(=O)[Se]CC(=O)O)cc(OC)c1OC [Compound 15, (3,4,5-trimethoxybenzoylselenyl)acetic acid] as the compound, how does the “IC50 PC-3 cell line” value (PC-3 cell line; 72 h exposure, MTT, drug concentrations 2, 5, 7 and 10 μM, NE = no effect is observed) read?
**A.** The value was “suppression of the antitumour activity”.

**Q.** And the IC50 (PC-3 cell line; [2])?
**A.** The IC50 was > 10 µM.

**Q.** And the IC50 (PC-3 cell line; [3])?
**A.** Its IC50 is > 10 µM.

**Q.** Which IC50 (PC-3 cell line; [2]) does the source give for O=C(O)C[Se]C(=O)c1ccc2c(c1)OCO2 [Compound 16, (3,4-methylenedioxy-benzoylselenyl) acetic acid] here?
**A.** The IC50 was > 10 µM.

**Q.** And the IC50 (PC-3 cell line; [3])?
**A.** The IC50 was > 10 µM.
